Reference: publication PMC7200681, “The calcitonin-like system is an ancient regulatory system of biomineralization” (Scientific Reports, 2020)

Legend:
mussel CALCRIIc = test: Calcium mobilization assay (apoaequorin bioluminescence), dose-response, HEK 293 cells expressing mussel CALCRIIc; format: cell-based, Mytilus coruscus; details: HEK 293/apoaequorin, 1 μM to 0.01 nM
Description: The complete sequence of the Mediterranean mussel CALCRIa was amplified using specific primers (Table 1) from cDNA of a tissue mixture (mantle, adductor muscle, gills, gonads) using a proofreading DNA polymerase (iProof BIORAD, Portugal) and cloned into the pGEMT-easy vector (PROMEGA, Spain). The Mediterranean mussel CALCRIIa transcript that was found in the mantle transcriptome was incomplete and lacked the N-terminus (by comparisons with the hard-shelled mussel homologue) and so the remaining sequence (from 1–393 bp) was deduced from the hard-shelled mussel homologue receptor and the receptor was synthesised and supplied by GENESCRIPT (USA). The complete transcripts for mussel CALCRIc, CALCRIIb and CALCRIIc were only found in the hard-shelled mussel mantle transcriptome and homologues were only found in the Mediterranean mussel genome as they were absent from the species mantle transcriptome and so they were also synthesised and supplied by GENESCRIPT (USA) using the hard-shelled mussel receptor sequences as template. […]
Mammalian cell cultures and transfections followed the methodology described by[89],[90]. […] Cell recovery was monitored daily and the medium was changed every two days until no cell death was observed. […]
(§1) HEK293 cells stably expressing five mussel receptors (CALCRIa, CALCRIc, CALCRIIa, CALCRIIb and CALCRIIc) were stimulated with the two mussel peptides and the vertebrate (human and salmon) calcitonins. Receptor activation was assessed in vitro by measuring two intracellular signalling pathways: a) production of cAMP and b) mobilization of calcium (Ca^2+). The cellular response was initially assessed using 10 μM of each peptide. […]
Stable cell lines expressing the mussel receptors were transiently co-transfected with the mitochondrial targeted apo-aequorin protein cloned in pcDNA3.1. Two days after transfection cells were washed, counted and resuspended in 1 ml of DMEM /F12 Ham (without phenol red)/0.1% BSA supplemented with 2 µM coelenterazine (SIGMA-ALDRICH). […]

mussel CALCRIa = test: Calcium mobilization assay (apoaequorin bioluminescence), dose-response, HEK 293 cells expressing mussel CALCRIa; format: cell-based, Mytilus galloprovincialis; details: for EC50: HEK 293 cells stably expressing receptor, co-transfected with apoaequorin, peptide 1 μM to 0.01 nM, three independent assays in duplicate, read-out: EC50, activation of mussel CALCRIa (intracellular calcium mobilization); for Activation of mussel CALCRIa in dose-response analysis (in words): calcium mobilization, HEK 293/apoaequorin, 1 μM to 0.01 nM
Description: (§2) The complete sequence of the Mediterranean mussel CALCRIa was amplified using specific primers (Table 1) from cDNA of a tissue mixture (mantle, adductor muscle, gills, gonads) using a proofreading DNA polymerase (iProof BIORAD, Portugal) and cloned into the pGEMT-easy vector (PROMEGA, Spain). The Mediterranean mussel CALCRIIa transcript that was found in the mantle transcriptome was incomplete and lacked the N-terminus (by comparisons with the hard-shelled mussel homologue) and so the remaining sequence (from 1–393 bp) was deduced from the hard-shelled mussel homologue receptor and the receptor was synthesised and supplied by GENESCRIPT (USA). The complete transcripts for mussel CALCRIc, CALCRIIb and CALCRIIc were only found in the hard-shelled mussel mantle transcriptome and homologues were only found in the Mediterranean mussel genome as they were absent from the species mantle transcriptome and so they were also synthesised and supplied by GENESCRIPT (USA) using the hard-shelled mussel receptor sequences as template. The mussel CALCRIb transcript was incomplete and lacked both N and C-terminal regions and it was not possible to obtain the complete transcript either by searching both mussels mantle transcriptomes or the Mediterranean mussel genome and so it was not produced. All synthetized receptors were provided in the pUC57 cloning vector by the company and receptor codon usage was optimized to favour a high level of expression in mammalian cells.
(§3) Mammalian cell cultures and transfections followed the methodology described by[89],[90]. Mammalian HEK293 cells (ECACC, UK) were used and they were maintained in complete Dulbecco’s modified Eagle’s medium (DMEM, 4.5 g/l glucose, 110 mg/l sodium pyruvate and L-glutamine, SIGMA-ALDRICH, Spain) supplemented with 10% sterile foetal bovine serum (FBS), 0.1% penicillin: streptomycin antibiotic mix (10,000 U:10 mg/ml, Sigma) and 250 μg /ml sterile filtered 1:100 amphotericin B solution (SIGMA-ALDRICH) in a humid 5% CO2 incubator (HERAEUS, Portugal) at 37 °C. On the day prior to transfection, 2–3 × 10^5 HEK293 cells were seeded on 6 well plates (SARSTEDT, Portugal) and transfected with Fugene HD transfection reagent (2 DNA: 4 Fugene ratio, PROMEGA) following the manufacturer’s protocol. Seventy-two hours after transfection, 800 μg/ml of the antibiotic Geneticin (SIGMA-ALDRICH) was added to the medium to select and isolate stable receptor cell lines. Cell recovery was monitored daily and the medium was changed every two days until no cell death was observed. […]
as §1
(§4) Stable cell lines expressing the mussel receptors were transiently co-transfected with the mitochondrial targeted apo-aequorin protein cloned in pcDNA3.1. Two days after transfection cells were washed, counted and resuspended in 1 ml of DMEM /F12 Ham (without phenol red)/0.1% BSA supplemented with 2 µM coelenterazine (SIGMA-ALDRICH). […] The injector system of the Biotek Synergy 4 microplate reader (USA) was used to inject 50 µl of the cell suspensions into wells containing 50 μl of the diluted peptide in DMEM / F12 Ham / 0.1% BSA. […]

mussel CALCRIIa = test: Calcium mobilization assay (apoaequorin bioluminescence), dose-response, HEK 293 cells expressing mussel CALCRIIa; format: cell-based, Mytilus galloprovincialis; details: for EC50: HEK 293 cells stably expressing receptor, co-transfected with apoaequorin, peptide 1 μM to 0.01 nM, three independent assays in duplicate, read-out: EC50, activation of mussel CALCRIIa (intracellular calcium mobilization); for Activation of mussel CALCRIIa in dose-response analysis (in words): calcium mobilization, HEK 293/apoaequorin, 1 μM to 0.01 nM
Description: as §2, §3, §1, §4

[1] = tested on: mussel CALCR-like (CALCRIa, CALCRIc, CALCRIIa, CALCRIIb and CALCRIIc); test: cAMP assay in HEK 293 cells stably expressing the mussel receptors; format: cell-based; details: 10 µM peptide, 30 min at 37 °C, 1 mM IBMX; % of Forskolin (10uM) response; single experiment in triplicate (Supplementary Figure 7A)
Description: Mammalian cell cultures and transfections followed the methodology described by[89],[90]. Mammalian HEK293 cells (ECACC, UK) were used and they were maintained in complete Dulbecco’s modified Eagle’s medium (DMEM, 4.5 g/l glucose, 110 mg/l sodium pyruvate and L-glutamine, SIGMA-ALDRICH, Spain) supplemented with 10% sterile foetal bovine serum (FBS), 0.1% penicillin: streptomycin antibiotic mix (10,000 U:10 mg/ml, Sigma) and 250 μg /ml sterile filtered 1:100 amphotericin B solution (SIGMA-ALDRICH) in a humid 5% CO2 incubator (HERAEUS, Portugal) at 37 °C. […] Cell recovery was monitored daily and the medium was changed every two days until no cell death was observed. […]
as §1
The amount of cAMP produced was determined using a competitive immunoassay with a cryptate labelled anti-cAMP antibody (CISBIO, France) and followed the methodology describe by[89],[90]. […]

SMILES | Activation of mussel CALCRIIc in dose-response analysis (in words) (mussel CALCRIIc) | EC50 (mussel CALCRIa) [nM] | Activation of mussel CALCRIa in dose-response analysis (in words) (mussel CALCRIa) | EC50 (mussel CALCRIIa) [nM] | Activation of mussel CALCRIIa in dose-response analysis (in words) (mussel CALCRIIa) | Stimulation of all mussel receptors via the cAMP pathway (in words) [1]
CC[C@H](C)[C@H](NC(=O)[C@H](C)NC(=O)[C@@H](NC(=O)[C@H](CCC(N)=O)NC(=O)[C@@H]1CCCN1C(=O)[C@H](Cc1ccccc1)NC(=O)[C@@H](NC(=O)[C@H](Cc1c[nH]cn1)NC(=O)[C@H](Cc1ccccc1)NC(=O)[C@H](CCCCN)NC(=O)[C@H](CC(N)=O)NC(=O)[C@H](Cc1ccccc1)NC(=O)[C@H](CC(=O)O)NC(=O)[C@H](CCC(N)=O)NC(=O)[C@@H](NC(=O)[C@H](Cc1ccc(O)cc1)NC(=O)[C@@H](NC(=O)CNC(=O)[C@H](CC(C)C)NC(=O)[C@H](CCSC)NC(=O)[C@@H]1CSSC[C@H](N)C(=O)NCC(=O)N[C@@H](CC(N)=O)C(=O)N[C@@H](CC(C)C)C(=O)N[C@@H](CO)C(=O)N[C@@H]([C@@H](C)O)C(=O)N1)[C@@H](C)O)[C@@H](C)O)[C@@H](C)O)[C@@H](C)O)C(=O)NCC(=O)N[C@H](C(=O)NCC(=O)N[C@@H](C)C(=O)N1CCC[C@H]1C(N)=O)C(C)C [human calcitonin, calcitonin] | but not CALCRIIc | 9.5 | activated | 500 | activated | stimulated
CC(C)C[C@H](NC(=O)[C@H](CCCCN)NC(=O)CNC(=O)[C@H](CC(C)C)NC(=O)[C@@H](NC(=O)[C@@H]1CSSC[C@H](N)C(=O)N[C@@H](CO)C(=O)N[C@@H](CC(N)=O)C(=O)N[C@@H](CC(C)C)C(=O)N[C@@H](CO)C(=O)N[C@@H]([C@@H](C)O)C(=O)N1)C(C)C)C(=O)N[C@@H](CO)C(=O)N[C@@H](CCC(N)=O)C(=O)N[C@@H](CCC(=O)O)C(=O)N[C@@H](CC(C)C)C(=O)N[C@@H](Cc1c[nH]cn1)C(=O)N[C@@H](CCCCN)C(=O)N[C@@H](CC(C)C)C(=O)N[C@@H](CCC(N)=O)C(=O)N[C@H](C(=O)N[C@@H](Cc1ccc(O)cc1)C(=O)N1CCC[C@H]1C(=O)N[C@@H](CCCNC(=N)N)C(=O)N[C@H](C(=O)N[C@@H](CC(N)=O)C(=O)N[C@H](C(=O)NCC(=O)N[C@@H](CO)C(=O)NCC(=O)N[C@H](C(=O)N1CCC[C@H]1C(N)=O)[C@@H](C)O)[C@@H](C)O)[C@@H](C)O)[C@@H](C)O [salmon calcitonin, calcitonin] | but not CALCRIIc | 5 | activated | 14 | activated | stimulated
